Data published in patent US20030045557A1, “Thiadiazoles and oxadiazoles and their use as phosphodiesterase-7 inhibitors” (priority 2000, published 2003).

biological target: T1, PDE7A1 (Homo sapiens, UniProt Q13946); assay: In vitro inhibition of phosphodiesterase 7 (enzymatic activity, cAMP substrate 50 nM); type: biochemical; conditions: PDE7A1 expressed in Sf 21 insect cells; cAMP 50 nM; reaction 10 minutes; read-out: IC50 (PDE7)
T1 construct: made in house; host or cells: Sf21 insect cells (baculovirus expression system)
Description: The capacity of the compounds of the invention to inhibit cyclic nucleotide phosphodiesterases was evaluated by measuring their IC50 (concentration necessary to inhibit the enzymatic activity by 50%).
PDE3A3, PDE4D3, and PDE7A1 were cloned and expressed in insect cells Sf 21 using the baculovirus expression system. The source of PDE103 and of PDE503 were human cell lines (respectively TPH1 human monocytes and MCF7 human breast adenocarcinoma). The various types of phosphodiesterases were obtained partially purified on an anion exchange column (Mono Q) according to a method adapted from Lavan B. E., Lakey T., Houslay M.D., Biochemical Pharmacology, 1989;38(22):4123-4136.
Measurement of the enzymatic activity for the various types of PDE was then made according to a method adapted from Thompson W. J. et al., Advances in Cyclic Nucleotide Research, ed. G. Brooker et al. New York: Raven Press, 1979;10:69-92.
The substrate used was cGMP for PDE1 and PDE5 and cAMP for PDE3, PDE4, and PDE7. The substrate concentration was 0.2 μM for PDE1, PDE3, and PDE5, 0.25 μM for PDE4, and 50 nM for PDE7.
The enzymatic reaction was stopped after 1 hour for PDE1, PDE3, and PDE5 and 10 minutes for PDE4 and PDE7.

T1 sequence (Q13946 whole entry, species assumed): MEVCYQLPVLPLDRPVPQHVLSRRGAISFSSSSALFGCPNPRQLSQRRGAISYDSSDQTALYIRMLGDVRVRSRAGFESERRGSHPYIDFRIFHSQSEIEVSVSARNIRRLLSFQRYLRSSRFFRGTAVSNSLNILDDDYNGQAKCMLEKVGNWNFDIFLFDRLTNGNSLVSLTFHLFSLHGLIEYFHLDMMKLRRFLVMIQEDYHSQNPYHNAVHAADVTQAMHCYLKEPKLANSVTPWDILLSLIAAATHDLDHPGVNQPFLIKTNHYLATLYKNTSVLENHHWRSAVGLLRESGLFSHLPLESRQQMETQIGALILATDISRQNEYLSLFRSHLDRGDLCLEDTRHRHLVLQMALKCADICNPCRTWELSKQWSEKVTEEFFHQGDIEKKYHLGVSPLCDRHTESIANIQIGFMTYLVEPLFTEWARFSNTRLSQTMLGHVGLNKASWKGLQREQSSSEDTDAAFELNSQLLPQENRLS

IC50	SMILES
130 nM	Cn1nc(-c2ccc(Cl)cc2)s/c1=N\c1ccc(F)c(C(=O)O)c1 [I2,1, 5-[5-(4-Chloro-phenyl)-3-methyl-3H[1,3,4]thiadiazol-2-ylideneamino]-2-fluoro-benzoic acid]
61 nM	COc1c(O)cc(-c2nn(C)/c(=N/C3CCCCC3)s2)cc1O [I18,3, 5-(5-Cyclohexylimino-4-methyl-4,5-dihydro[1,3,4]thiadiazol-2yl)-2-methoxy-benzene-1,3-diol; compound with trifluoro-methanesulfonic acid]
140 nM	Cn1nc(-c2ccc(S(C)(=O)=O)cc2)s/c1=N\C1CCCCC1 [Example I15, Cyclohexyl-[5-(4-methanesulfonyl-phenyl)-3-methyl-3H-[1,3,4]thiadiazol-2-ylidene]-amine]
230 nM	COC(=O)c1ccc(-c2nn(C)/c(=N/C3CCCCC3)s2)cc1 [Example I37, 4-(5-Cyclohexylimino-4-methyl-4,5-dihydro-[1,3,4]thiadiazol-2-yl)-benzoic acid methyl ester]
1300 nM	Cn1nc(-c2ccccc2Cl)s/c1=N\C1CCCCC1 [I10,1, [5-(2-Chloro-phenyl)-3-methyl-3H-[1,3,4]thiadiazol-2-ylidene]-cyclohexyl-amine]
470 nM	Cn1nc(-c2cnccn2)s/c1=N\C1CCCCC1 [Example I25, Cyclohexyl-(3-methyl-5-pyrazin-2-yl-3H-[1,3,4]thiadiazol-2-ylidene)-amine]
70 nM	Cn1nc(-c2ccc(Cl)c(S(N)(=O)=O)c2)s/c1=N\C1CCCCC1 [Example I19, 2-Chloro-5-(5-cyclohexylimino-4-methyl-4,5-dihydro-[1,3,4]thiadiazol-2-yl)-benzenesulfonamide]
230 nM	Cn1nc(-c2cc3cc(Cl)ccc3[nH]2)s/c1=N\C1CCCCC1 [Example I31, [5-(5-Chloro-1H-indol-2-yl)-3-methyl-3H-[1,3,4]thiadiazol-2-ylidene]-cyclohexyl-amine; compound with trifluoro-methanesulfonic acid]

More lines, now with the values behind:

SMILES	IC50
Cn1nc(-c2cccc(S(N)(=O)=O)c2)s/c1=N\C1CCCCC1 [Example I39, 3-(5-Cyclohexylimino-4-methyl-4,5-dihydro-[1,3,4]thiadiazol-2-yl)-benzenesulfonamide]	200 nM
Cn1nc(-c2ccc(Cl)cc2)s/c1=N\[C@@H]1CCCC[C@H]1O (relative stereo) [Example I8, (1R*,2R*)-2-[5-(4-Chloro-phenyl)-3-methyl-3H-[1,3,4]thiadiazol-2-ylideneamino]-cyclohexanol]	450 nM
Cn1nc(-c2ccc(C(=O)O)cc2)s/c1=N\C1CCCCC1 [I37,1, 4-(5-Cyclohexylimino-4-methyl-4,5-dihydro-[1,3,4]thiadiazol-2-yl)-benzoic acid]	550 nM
CCNC(=O)c1ccc(-c2nn(C)/c(=N/C3CCCCC3)s2)cc1 [I37,8, 4-(5-Cyclohexylimino-4-methyl-4,5-dihydro[1,3,4]thiadiazol-2-yl)-N-ethyl-benzamide]	64 nM
Cn1nc(-c2cccc3cccnc23)s/c1=N\C1CCCCC1 [Example I28, Cyclohexyl-(3-methyl-5-quinolin-8-yl-3H-[1,3,4]thiadiazol-2-ylidene)-amine]	230 nM
Cn1nc(-c2cccnc2)s/c1=N\C1CCCCC1 [Example I38, Cyclohexyl-(3-methyl-5-pyridin-3-yl-3H-[1,3,4]thiadiazol-2-ylidene)-amine]	340 nM
